# pEC50, pIC50: −log10 of the molar value. Read-outs that look alike come from different tables or passages of the source.
# How the values were obtained:
# human DGKα = target: T1, human DGKα (Homo sapiens, UniProt P23743); assay: DGKα LIPGLO assay (extruded liposome substrate), in vitro DGK inhibition; type: biochemical; conditions: read-out: DGKa LIPGLO IC50
# T1 construct: TVMV protease cleavage site (C); Hexa-His (C); made in house; host or cells: Sf9 insect cells (baculovirus, Bac-to-Bac)
# human DGKζ = target: T2, human DGKζ (Homo sapiens, UniProt Q13574); assay: DGKζ LIPGLO assay (extruded liposome substrate), in vitro DGK inhibition; type: biochemical; conditions: read-out: DGKz LIPGLO IC50
# T2 construct: TVMV protease cleavage site (C); Hexa-His (C); made in house; host or cells: Sf9 insect cells (baculovirus, Bac-to-Bac)
# Human venous whole blood = assay: Human whole blood IFN-γ assay; type: cell-based; conditions: human whole blood, read-out: INFg Whole Blood Normalized Agonist EC50;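 note: blood from healthy donors exposed to compound for 1 h before stimulation with anti-CD3 and anti-CD28 at 1 µg/mL each, IFN-γ quantified in supernatant by AlphaLISA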
# Protocol: Human Whole Blood IFN-γ Assay
# Human venous whole blood (22.5 μL per well), obtained from healthy donors, was pre-treated with compounds for one hour at 37° C. in a humidified 95% air/5% CO2 incubator. The blood was stimulated with 2.5 μL anti-human CD3 and anti-CD28 mAb at a final concentration of 1 μg/mL each for 24 hours at 37° C. IFN-γ in the supernatants was measured using AlphLISA kit (Cat # AL217).
# [1] = normalized to 3 μM reference compound with anti-CD3 plus anti-CD28 as 100% activation
# [2] = Homo sapiens, 24 h, normalized to 3 μM reference compound with anti-CD3 plus anti-CD28 as 100% activation
# [3] = anti-CD3 plus anti-CD28, 24 hours, 3 μM reference compound = 100% activation
# [4] = Homo sapiens, 24 h, anti-CD3 plus anti-CD28, 24 hours, 3 μM reference compound = 100% activation
# T2 sequence (Q13574 with tags, fused parts or gaps isoform Q13574-4): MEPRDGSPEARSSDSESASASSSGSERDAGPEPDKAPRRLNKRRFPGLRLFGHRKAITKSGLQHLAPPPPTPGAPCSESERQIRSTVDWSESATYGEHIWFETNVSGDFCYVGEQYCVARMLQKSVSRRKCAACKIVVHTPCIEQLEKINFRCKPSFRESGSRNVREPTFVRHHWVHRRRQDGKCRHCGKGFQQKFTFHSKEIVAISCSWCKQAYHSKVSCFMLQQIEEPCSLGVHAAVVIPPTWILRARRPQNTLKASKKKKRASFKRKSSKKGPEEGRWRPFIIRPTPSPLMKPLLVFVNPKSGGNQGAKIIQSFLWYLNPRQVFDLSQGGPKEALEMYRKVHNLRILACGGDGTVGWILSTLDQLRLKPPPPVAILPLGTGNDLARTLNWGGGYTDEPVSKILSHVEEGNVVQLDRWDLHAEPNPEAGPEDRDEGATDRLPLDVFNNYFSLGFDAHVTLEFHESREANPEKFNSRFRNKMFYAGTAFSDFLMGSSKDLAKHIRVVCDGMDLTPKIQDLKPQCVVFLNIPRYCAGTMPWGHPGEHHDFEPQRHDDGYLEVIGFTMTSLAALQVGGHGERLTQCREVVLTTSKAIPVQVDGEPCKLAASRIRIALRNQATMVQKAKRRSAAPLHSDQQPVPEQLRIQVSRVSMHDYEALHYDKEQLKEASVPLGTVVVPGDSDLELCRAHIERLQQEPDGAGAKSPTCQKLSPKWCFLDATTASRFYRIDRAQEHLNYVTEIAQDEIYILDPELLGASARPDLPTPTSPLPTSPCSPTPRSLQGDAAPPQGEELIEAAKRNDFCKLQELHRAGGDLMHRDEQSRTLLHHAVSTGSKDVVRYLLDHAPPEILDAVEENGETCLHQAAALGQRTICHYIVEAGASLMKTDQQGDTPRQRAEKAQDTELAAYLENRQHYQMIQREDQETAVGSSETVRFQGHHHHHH
# T1 sequence (P23743 with tags, fused parts or gaps): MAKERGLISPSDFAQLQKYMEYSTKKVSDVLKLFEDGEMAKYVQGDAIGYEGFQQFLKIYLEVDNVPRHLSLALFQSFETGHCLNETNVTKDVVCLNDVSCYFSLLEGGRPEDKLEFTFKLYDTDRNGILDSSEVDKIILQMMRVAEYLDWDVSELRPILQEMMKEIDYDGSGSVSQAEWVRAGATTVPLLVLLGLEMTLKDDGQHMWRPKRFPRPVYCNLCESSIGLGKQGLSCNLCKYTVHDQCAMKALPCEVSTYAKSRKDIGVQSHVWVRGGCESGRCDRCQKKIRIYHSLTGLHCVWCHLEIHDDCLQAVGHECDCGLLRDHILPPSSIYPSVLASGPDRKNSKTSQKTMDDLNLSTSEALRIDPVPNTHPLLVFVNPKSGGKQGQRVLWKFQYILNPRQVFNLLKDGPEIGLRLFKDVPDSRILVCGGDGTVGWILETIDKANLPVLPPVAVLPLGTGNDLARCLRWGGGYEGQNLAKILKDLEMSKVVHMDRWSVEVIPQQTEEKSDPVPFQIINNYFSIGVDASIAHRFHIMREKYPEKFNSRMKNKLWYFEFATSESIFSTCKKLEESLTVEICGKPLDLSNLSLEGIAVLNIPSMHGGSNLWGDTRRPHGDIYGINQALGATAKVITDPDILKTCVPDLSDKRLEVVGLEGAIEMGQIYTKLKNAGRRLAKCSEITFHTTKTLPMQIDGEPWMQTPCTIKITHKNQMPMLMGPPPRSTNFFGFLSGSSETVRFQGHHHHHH
SMILES,pIC50 (human DGKα; liposome (LIPGLO) assay),pIC50 (human DGKζ; liposome (LIPGLO) assay),pEC50 (Human venous whole blood; [1]),pEC50 (Human venous whole blood; [2]),pIC50 (human DGKα; DGKα liposome (LIPGLO) assay),pIC50 (human DGKζ; DGKζ liposome (LIPGLO) assay),pEC50 (Human venous whole blood; [3]),pEC50 (Human venous whole blood; [4])
C[C@@H]1CN(c2cc(=O)n(C)c3ccc(C#N)nc23)[C@@H](C)CN1C(c1ccc(F)cc1)c1ncccn1 (stereo partly drawn) [Example 677],6.82,5.57,5.74,,,,,
C[C@@H]1CN(c2cc(=O)n(C)c3ccc(C#N)nc23)[C@@H](C)CN1C(c1ccc(F)cc1)c1cccc(C(F)(F)F)n1 (stereo partly drawn) [Example 678],5.44,5.82,6.36,,,,,
C[C@@H]1CN(c2cc(=O)n(C)c3ccc(C#N)nc23)[C@@H](C)CN1C(c1ccc(F)cc1)c1cccc(C(F)(F)F)n1 (stereo partly drawn) [Example 679],5.27,6.14,5.89,,,,,
CC(C)Oc1ccc(C(c2cccc(F)c2)N2C[C@H](C)N(c3cc(=O)n(C)c4ccc(C#N)nc34)C[C@H]2C)nc1 (stereo partly drawn) [Example 690],5.82,6.41,,5.46,,,,
CC(C)Oc1ccc(C(c2cccc(F)c2)N2C[C@H](C)N(c3cc(=O)n(C)c4ccc(C#N)nc34)C[C@H]2C)nc1 (stereo partly drawn) [Example 691],5.35,6.25,5.57,,,,,
C[C@@H]1CN(c2cc(=O)n(C)c3ccc(C#N)nc23)[C@@H](C)CN1C(c1ccc(F)cc1)c1cncn1C (stereo partly drawn) [Example 704],4.07,4.34,,4.77,,,,
C[C@@H]1CN(c2cc(=O)n(C)c3ccc(C#N)nc23)[C@@H](C)CN1C(c1ccc(F)cc1)c1cncn1C (stereo partly drawn) [Example 705],3.66,4.72,5.04,,,,,
C[C@@H]1CN(c2cc(=O)n(C)c3ccc(C#N)nc23)[C@@H](C)CN1C(c1ccc(F)cc1)c1nccn1C (stereo partly drawn) [Example 713],5.18,4.29,4.89,,,,,
C[C@@H]1CN(c2cc(=O)n(C)c3ccc(C#N)nc23)[C@@H](C)CN1C(c1ccc(F)cc1)c1nccn1C (stereo partly drawn) [Example 714],4.74,4.55,5.41,,,,,
C[C@@H]1CN(c2cc(=O)n(C)c3ccc(C#N)nc23)[C@@H](C)CN1C(c1ccc(F)cc1)c1ncco1 (stereo partly drawn) [Example 717],6.66,5.09,,5.80,,,,
C[C@@H]1CN(c2cc(=O)n(C)c3ccc(C#N)nc23)[C@@H](C)CN1C(c1ccc(F)cc1)c1ncco1 (stereo partly drawn) [Example 718],7.05,5.34,6.08,,,,,
C[C@@H]1CN(c2cc(=O)n(C)c3ccc(C#N)nc23)[C@@H](C)CN1C(c1ccc(F)cc1)c1ccns1 (stereo partly drawn) [Example 719],6.40,6.42,6.30,,,,,
C[C@@H]1CN(c2cc(=O)n(C)c3ccc(C#N)nc23)[C@@H](C)CN1C(c1ccc(F)cc1)c1ccns1 (stereo partly drawn) [Example 720],5.96,6.03,5.72,,,,,
C[C@@H]1CN(c2cc(=O)n(C)c3ccc(C#N)nc23)[C@@H](C)CN1C(c1ccc(F)cc1)c1cscn1 (stereo partly drawn) [Example 721],,,,,7.14,5.96,5.46,
C[C@@H]1CN(c2cc(=O)n(C)c3ccc(C#N)nc23)[C@@H](C)CN1C(c1ccc(F)cc1)c1cscn1 (stereo partly drawn) [Example 722],,,,,6.92,6.25,6.08,
C[C@@H]1CN(c2cc(=O)n(C)c3ccc(C#N)nc23)[C@@H](C)CN1C(c1ccc(F)cc1)c1nc(C(F)F)no1 (stereo partly drawn) [Example 743],,,,,6.92,5.80,,6.38
C[C@@H]1CN(c2cc(=O)n(C)c3ccc(C#N)nc23)[C@@H](C)CN1C(c1ccc(F)cc1)c1nc(C(F)F)no1 (stereo partly drawn) [Example 744],,,,,7.31,6.21,6.51,
Cc1noc(C(c2ccc(F)cc2)N2C[C@H](C)N(c3cc(=O)n(C)c4ccc(C#N)nc34)C[C@H]2C)n1 (stereo partly drawn) [Example 745],,,,,6.42,6.33,,5.96
C[C@@H]1CN(c2cc(=O)n(C)c3ccc(C#N)nc23)[C@@H](C)CN1C(c1ccc(F)cc1)c1nc(N2CCOCC2)no1 (stereo partly drawn) [Example 749],,,,,6.17,6.24,5.92,

SMILES,pIC50 (human DGKα; liposome (LIPGLO) assay),pIC50 (human DGKζ; liposome (LIPGLO) assay),pEC50 (Human venous whole blood; [1]),pEC50 (Human venous whole blood; [2]),pIC50 (human DGKα; DGKα liposome (LIPGLO) assay),pIC50 (human DGKζ; DGKζ liposome (LIPGLO) assay),pEC50 (Human venous whole blood; [3]),pEC50 (Human venous whole blood; [4])
C[C@@H]1CN(c2cc(=O)n(C)c3ccc(C#N)nc23)[C@@H](C)CN1C(c1ccc(F)cc1)c1nc(N2CCOCC2)no1 (stereo partly drawn) [Example 750],,,,,6.32,6.62,6.82,
C[C@@H]1CN(c2cc(=O)n(C)c3ccc(C#N)nc23)[C@@H](C)CN1C(c1ccc(F)cc1)c1ncno1 (stereo partly drawn) [Example 755],,,,,5.59,4.21,,4.74
C[C@@H]1CN(c2cc(=O)n(C)c3ccc(C#N)nc23)[C@@H](C)CN1C(c1ccc(Br)cc1)c1nc(C2CC2)no1 (stereo partly drawn) [Example 760],,,,,7.15,7.66,7.32,
C[C@@H]1CN(c2cc(=O)n(C)c3ccc(C#N)nc23)[C@@H](C)CN1C(c1ccc(Br)cc1)c1nc(C2CC2)no1 (stereo partly drawn) [Example 761],,,,,7.32,7.39,6.77,
C[C@@H]1CN(c2c(C#N)c(=O)n(C)c3ccc(C#N)nc23)[C@@H](C)CN1C(c1ccc(Cl)cc1)c1ccc(Cl)cc1 [Example 805],,,,,4.96,5.77,,5.01
C[C@@H]1CN(c2c(C#N)c(=O)n(C)c3ccc(C#N)nc23)[C@@H](C)CN1C(c1ccccc1)c1ccc(F)cc1 (stereo partly drawn) [Example 807],,,,,5.30,5.59,,5.60
C[C@@H]1CN(c2c(C#N)c(=O)n(C)c3ccc(C#N)nc23)[C@@H](C)CN1C(c1ccccc1)c1ccc(F)cc1 (stereo partly drawn) [Example 808],,,,,5.38,5.80,5.89,
Cc1cccc(C(c2ccc(F)cc2)N2C[C@H](C)N(c3c(C#N)c(=O)n(C)c4ccc(C#N)nc34)C[C@H]2C)n1 (stereo partly drawn) [Example 815],,,,,5.11,5.39,,5.72
Cc1cccc(C(c2ccc(F)cc2)N2C[C@H](C)N(c3c(C#N)c(=O)n(C)c4ccc(C#N)nc34)C[C@H]2C)n1 (stereo partly drawn) [Example 816],,,,,5.59,5.51,5.96,
Cc1ccc(C(c2ccc(F)cc2)N2C[C@H](C)N(c3c(C#N)c(=O)n(C)c4ccc(C#N)nc34)C[C@H]2C)cc1 (stereo partly drawn) [Example 817],,,,,4.66,5.07,5.96,
Cc1ccc(C(c2ccc(F)cc2)N2C[C@H](C)N(c3c(C#N)c(=O)n(C)c4ccc(C#N)nc34)C[C@H]2C)cc1 (stereo partly drawn) [Example 818],,,,,4.24,5.14,5.38,
C[C@@H]1CN(c2c(C#N)c(=O)n(C)c3ccc(C#N)nc23)[C@@H](C)CN1C(c1ccc(F)cc1)c1ccc(F)cn1 (stereo partly drawn) [Example 827],,,,,5.36,5.00,5.89,
C[C@@H]1CN(c2c(C#N)c(=O)n(C)c3ccc(C#N)nc23)[C@@H](C)CN1C(c1ccc(F)cc1)c1ccc(F)cn1 (stereo partly drawn) [Example 828],,,,,5.38,4.80,5.57,
Cc1ccc(C(c2ccc(F)cc2Cl)N2C[C@H](C)N(c3c(C#N)c(=O)n(C)c4ccc(C#N)nc34)C[C@H]2C)nc1 (stereo partly drawn) [Example 831],,,,,4.38,5.19,,5.60
Cc1ccc(C(c2ccc(F)cc2Cl)N2C[C@H](C)N(c3c(C#N)c(=O)n(C)c4ccc(C#N)nc34)C[C@H]2C)nc1 (stereo partly drawn) [Example 832],,,,,4.72,5.57,5.74,
C[C@@H]1CN(c2c(C#N)c(=O)n(C)c3ccc(C#N)nc23)[C@@H](C)CN1C(c1ccccc1)c1ccc(Cl)cc1 (stereo partly drawn) [Example 834],,,,,4.66,5.22,5.44,
C[C@@H]1CN(c2c(C#N)c(=O)n(C)c3ccc(C#N)nc23)[C@@H](C)CN1C(c1ccccc1)c1ccc(Cl)cc1 (stereo partly drawn) [Example 835],,,,,4.96,4.96,4.70,
C[C@@H]1CN(c2c(C#N)c(=O)n(C)c3ccc(C#N)nc23)[C@@H](C)CN1C(c1ccc(F)cc1)c1cnn(C)c1 (stereo partly drawn) [Example 846],,,,,4.92,5.07,,5.29
